Measurements from patent US10314823B2, “Substituted 1,2-dihydro-3H-pyrrolo[1,2-c]imidazol-3-one antibacterial compounds” (IDORSIA PHARMACEUTICALS LTD, priority 2015, dated 2019).
In brackets after ≈: the same amount, converted by molar mass.

Legend:
Assay type in all cases: cell-based
[1] = tested on: P. aeruginosa ATCC27853; assay: Bacterial growth minimal inhibitory concentration (CLSI broth microdilution); conditions: quinolone-sensitive strain, cation-adjusted Mueller-Hinton Broth; for MIC: Pseudomonas aeruginosa, ATCC27853
How it was run: (§1)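 Read-out is the MIC (mg/L) from CLSI M7-A7 broth microdilution in cation-adjusted Mueller-Hinton medium. The Klebsiella strain A-651 carries multiple resistances including to quinolones; the E. coli and Pseudomonas ATCC reference strains are quinolone-susceptible.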

[2] = tested on: E. coli ATCC25922; assay: as above; conditions: quinolone-sensitive strain, cation-adjusted Mueller-Hinton Broth; for MIC: Escherichia coli, ATCC25922
How it was run: as §1

[3] = tested on: K. pneumoniae A-651; assay: as above; conditions: multiply resistant strain (in particular quinolone-resistant), cation-adjusted Mueller-Hinton Broth; for MIC: Klebsiella pneumoniae, A651
How it was run: as §1

[4] = tested on: wild-type E. coli A-1261; assay: MIC of prodrug with or without alkaline phosphatase or esterase
Procedure: Minimal Inhibitory Concentrations (MICs; mg/L) were determined in cation-adjusted Mueller-Hinton Broth by a microdilution method following the description given in “Methods for Dilution Antimicrobial Susceptibility Tests for Bacteria that Grow Aerobically”, Approved standard, 7th ed., Clinical and Laboratory Standards Institute (CLSI) Document M7-A7, Wayne, Pa., USA (2006).
The compound of Example 86 was tested against wild-type E. coli A-1261 in the absence of alkaline phosphatase or esterase, in the presence of an alkaline phosphatase and in the presence of an esterase. The corresponding antibacterial test results are given in Table 2 hereafter (MICs in mg/L).

Row | Compound | MIC [1] [µg/mL] | MIC [2] [µg/mL] | MIC [3] [µg/mL] | other results
1 | [2H]C([2H])S(=O)(=O)[C@](C)(CCN1Cc2cc(C#CC#CC3CN(C)C3)cn2C1=O)C(=O)NO [Example 80, (2R)—N-hydroxy-2-methyl-2-((methyl-d2)sulfonyl)-4-(6-((1-methylazetidin-3-yl)buta-1,3-diyn-1-yl)-3-oxo-1H-pyrrolo[1,2-c]imidazol-2(3H)-yl)butanamide] | 0.5 (≈ 1.15 µM) | 0.5 (≈ 1.15 µM) | 0.5 (≈ 1.15 µM) | –
2 | [2H]C([2H])([2H])S(=O)(=O)[C@](C)(CCN1Cc2cc(C#CC#CC3CN(CCO)C3)cn2C1=O)C(=O)NO [Example 81, (2R)—N-hydroxy-4-(6-((1-(2-hydroxyethyl)azetidin-3-yl)buta-1,3-diyn-1-yl)-3-oxo-1H-pyrrolo[1,2-c]imidazol-2(3H)-yl)-2-methyl-2-((methyl-d3)sulfonyl)butanamide] | 1 (≈ 2.15 µM) | 1 (≈ 2.15 µM) | 2 (≈ 4.3 µM) | –
3 | CN1CC(C#Cc2ccc(-c3cc4n(c3)C(=O)N(CC[C@](C)(C(=O)NO)S(C)(=O)=O)C4)c(F)c2)C1 [Example 84, (2R)-4-(6-(2-fluoro-4-((1-methylazetidin-3-yl)ethynyl)phenyl)-3-oxo-1H-pyrrolo[1,2-c]imidazol-2(3H)-yl)-N-hydroxy-2-methyl-2-(methylsulfonyl)butanamide] | 2 (≈ 3.98 µM) | 0.5 (≈ 0.995 µM) | 1 (≈ 1.99 µM) | –
4 | CN1CC(C#Cc2ccc(-c3cc4n(c3)C(=O)N(CC[C@](C)(C(=O)NO)S(C)(=O)=O)C4)cc2)C1 [Example 85, (2R)—N-hydroxy-2-methyl-4-(6-(4-((1-methylazetidin-3-yl)ethynyl)phenyl)-3-oxo-1H-pyrrolo[1,2-c]imidazol-2(3H)-yl)-2-(methylsulfonyl)butanamide] | 1 (≈ 2.06 µM) | 0.5 (≈ 1.03 µM) | 1 (≈ 2.06 µM) | –
5 | C[C@@](CCN1Cc2cc(C#CC#CC3CN(CCO)C3)cn2C1=O)(C(=O)NOC(=O)CCc1ccccc1OP(=O)(O)O)S(C)(=O)=O [Example 86, (2R)-2-(3-((4-(6-((1-(2-hydroxyethyl)azetidin-3-yl)buta-1,3-diyn-1-yl)-3-oxo-1H-pyrrolo[1,2-c]imidazol-2(3H)-yl)-2-methyl-2-(methylsulfonyl)butanamido)oxy)-3-oxopropyl)phenyl dihydrogen phosphate] | – | – | – | MIC for E. coli A-1261 In the presence of an alkaline phosphatase (2 i.U./mL) ([4]; alkaline phosphatase 2 i.U./mL): 1 mg/L; MIC for E. coli A-1261 In the presence of an esterase (10 i.U./mL) ([4]; esterase 10 i.U./mL): 16 mg/L; MIC for E. coli A-1261 In the absence of alkaline phosphatase or esterase ([4]; no alkaline phosphatase or esterase): 16 mg/L
6 | CN1CCC(C#Cc2ccc(-c3cc4n(c3)C(=O)N(CC[C@](C)(C(=O)NO)S(C)(=O)=O)C4)c(F)c2)CC1 [Example 87, (2R)-4-(6-(2-fluoro-4-((1-methylpiperidin-4-yl)ethynyl)phenyl)-3-oxo-1H-pyrrolo[1,2-c]imidazol-2(3H)-yl)-N-hydroxy-2-methyl-2-(methylsulfonyl)butanamide] | 8 (≈ 15.1 µM) | 4 (≈ 7.54 µM) | > 8 | –
7 | C[C@@](CCN1Cc2cc(-c3ccc(C#CC4CN(CCO)C4)cc3F)cn2C1=O)(C(=O)NO)S(C)(=O)=O [Example 88, (2R)-4-(6-(2-fluoro-4-((1-(2-hydroxyethyl)azetidin-3-yl)ethynyl)phenyl)-3-oxo-1H-pyrrolo[1,2-c]imidazol-2(3H)-yl)-N-hydroxy-2-methyl-2-(methylsulfonyl)butanamide] | 2 (≈ 3.76 µM) | 0.5 (≈ 0.939 µM) | 2 (≈ 3.76 µM) | –
8 | C[C@@](CCN1Cc2cc(C#CC#CC3CCN(C4COC4)C3)cn2C1=O)(C(=O)NO)S(C)(=O)=O (stereo partly drawn) [Example 89, (2R)—N-hydroxy-2-methyl-2-(methylsulfonyl)-4-(6-((1-(oxetan-3-yl)pyrrolidin-3-yl)buta-1,3-diyn-1-yl)-3-oxo-1H-pyrrolo[1,2-c]imidazol-2(3H)-yl)butanamide] | 2 (≈ 4.09 µM) | 1 (≈ 2.05 µM) | 1 (≈ 2.05 µM) | –
9 | C[C@@](CCN1Cc2cc(C#CC#CC3CN(C4CC(O)C4)C3)cn2C1=O)(C(=O)NO)S(C)(=O)=O (stereo partly drawn) [Example 90, (2R)—N-hydroxy-4-(6-((1-((1r,3r)-3-hydroxycyclobutyl)azetidin-3-yl)buta-1,3-diyn-1-yl)-3-oxo-1H-pyrrolo[1,2-c]imidazol-2(3H)-yl)-2-methyl-2-(methylsulfonyl)butanamide] | – | – | – | MIC for P. aeruginosa ATCC27853 [1]: 1 mg/L; MIC for E. coli ATCC25922 [2]: 0.5 mg/L; MIC for K. Pneumoniae A-651 [3]: 0.5 mg/L
10 | C[C@@](CCN1Cc2cc(C#CC#CC3CN([C@H]4C[C@@H](O)C4)C3)cn2C1=O)(C(=O)NO)S(C)(=O)=O [Example 91, (2R)—N-hydroxy-4-(6-((1-((1s,3s)-3-hydroxycyclobutyl)azetidin-3-yl)buta-1,3-diyn-1-yl)-3-oxo-1H-pyrrolo[1,2-c]imidazol-2(3H)-yl)-2-methyl-2-(methylsulfonyl)butanamide] | – | – | – | MIC for P. aeruginosa ATCC27853 [1]: 1 mg/L; MIC for E. coli ATCC25922 [2]: 0.5 mg/L; MIC for K. Pneumoniae A-651 [3]: 0.5 mg/L
11 | C[C@H]1[C@H](C#CC#Cc2cc3n(c2)C(=O)N(CC[C@](C)(C(=O)NO)S(C)(=O)=O)C3)CN1C [Example 92, (2R)-4-(6-(((2S,3R)-1,2-dimethylazetidin-3-yl)buta-1,3-diyn-1-yl)-3-oxo-1H-pyrrolo[1,2-c]imidazol-2(3H)-yl)-N-hydroxy-2-methyl-2-(methylsulfonyl)butanamide] | 0.25 (≈ 0.56 µM) | 0.25 (≈ 0.56 µM) | 0.25 (≈ 0.56 µM) | –
12 | C[C@@H]1[C@@H](C#CC#Cc2cc3n(c2)C(=O)N(CC[C@](C)(C(=O)NO)S(C)(=O)=O)C3)CN1C [Example 93, (2R)-4-(6-(((2R,3S)-1,2-dimethylazetidin-3-yl)buta-1,3-diyn-1-yl)-3-oxo-1H-pyrrolo[1,2-c]imidazol-2(3H)-yl)-N-hydroxy-2-methyl-2-(methylsulfonyl)butanamide] | 0.25 (≈ 0.56 µM) | 0.25 (≈ 0.56 µM) | 0.5 (≈ 1.12 µM) | –
13 | CN1C[C@@H](C#CC#Cc2cc3n(c2)C(=O)N(CC[C@](C)(C(=O)NO)S(C)(=O)=O)C3)[C@@H]1CO [Example 95, (2R)—N-hydroxy-4-(6-(((2R,3R)-2-(hydroxymethyl)-1-methylazetidin-3-yl)buta-1,3-diyn-1-yl)-3-oxo-1H-pyrrolo[1,2-c]imidazol-2(3H)-yl)-2-methyl-2-(methylsulfonyl)butanamide] | 0.5 (≈ 1.08 µM) | 1 (≈ 2.16 µM) | 1 (≈ 2.16 µM) | –
14 | C[C@@H]1[C@H](C#CC#Cc2cc3n(c2)C(=O)N(CC[C@](C)(C(=O)NO)S(C)(=O)=O)C3)CN1C [Example 96, (2R)-4-(6-(((2R,3R)-1,2-dimethylazetidin-3-yl)buta-1,3-diyn-1-yl)-3-oxo-1H-pyrrolo[1,2-c]imidazol-2(3H)-yl)-N-hydroxy-2-methyl-2-(methylsulfonyl)butanamide] | 2 (≈ 4.48 µM) | 4 (≈ 8.96 µM) | 4 (≈ 8.96 µM) | –
15 | CN1C[C@H](C#CC#Cc2cc3n(c2)C(=O)N(CC[C@](C)(C(=O)NO)S(C)(=O)=O)C3)[C@H]1CO [Example 97, (2R)—N-hydroxy-4-(6-(((2S,3S)-2-(hydroxymethyl)-1-methylazetidin-3-yl)buta-1,3-diyn-1-yl)-3-oxo-1H-pyrrolo[1,2-c]imidazol-2(3H)-yl)-2-methyl-2-(methylsulfonyl)butanamide] | 0.5 (≈ 1.08 µM) | 0.5 (≈ 1.08 µM) | 1 (≈ 2.16 µM) | –
16 | CN1C[C@H](C#CC#Cc2cc3n(c2)C(=O)N(CC[C@](C)(C(=O)NO)S(C)(=O)=O)C3)[C@H]1CF [Example 98, (2R)—N-hydroxy-4-(6-(((2S,3S)-2-(fluoromethyl)-1-methylazetidin-3-yl)buta-1,3-diyn-1-yl)-3-oxo-1H-pyrrolo[1,2-c]imidazol-2(3H)-yl)-2-methyl-2-(methylsulfonyl)butanamide] | 0.5 (≈ 1.08 µM) | 0.063 (≈ 0.136 µM) | 0.25 (≈ 0.538 µM) | –
17 | C[C@@](CCN1Cc2cc(C#CC#C[C@H]3C[C@H](CO)N(C4COC4)C3)cn2C1=O)(C(=O)NO)S(C)(=O)=O [Example 100, (2R)—N-hydroxy-4-(6-(((3R,5R)-5-(hydroxymethyl)-1-(oxetan-3-yl)pyrrolidin-3-yl)buta-1,3-diyn-1-yl)-3-oxo-1H-pyrrolo[1,2-c]imidazol-2(3H)-yl)-2-methyl-2-(methylsulfonyl)butanamide] | 4 (≈ 7.71 µM) | 4 (≈ 7.71 µM) | 4 (≈ 7.71 µM) | –
18 | (2R)-4-(6-((1-isopropylazetidin-3-yl)buta-1,3-diyn-1-yl)-3-oxo-1H-pyrrolo[1,2-c]imidazol-2(3H)-yl)-2-methyl-2-(methylsulfonyl)-N-((tetrahydro-2H-pyran-2-yl)oxy)butanamide [Example 59] | – | – | – | MIC for P. aeruginosa ATCC27853 [1]: 0.5 mg/L; MIC for E. coli ATCC25922 [2]: 1 mg/L; MIC for K. Pneumoniae A-651 [3]: 0.5 mg/L
